Data on 25 compounds can be found in patent publication US7528148B2, “Pyrazolo[3,4-B]pyridine compounds, and their use as phosphodiesterase inhibitors” (Glaxo Group Limited, priority 2002, dated 2009).

SMILES strings stand for the structures.

T1 sequence (Q07343 1-564 isoform Q07343-2): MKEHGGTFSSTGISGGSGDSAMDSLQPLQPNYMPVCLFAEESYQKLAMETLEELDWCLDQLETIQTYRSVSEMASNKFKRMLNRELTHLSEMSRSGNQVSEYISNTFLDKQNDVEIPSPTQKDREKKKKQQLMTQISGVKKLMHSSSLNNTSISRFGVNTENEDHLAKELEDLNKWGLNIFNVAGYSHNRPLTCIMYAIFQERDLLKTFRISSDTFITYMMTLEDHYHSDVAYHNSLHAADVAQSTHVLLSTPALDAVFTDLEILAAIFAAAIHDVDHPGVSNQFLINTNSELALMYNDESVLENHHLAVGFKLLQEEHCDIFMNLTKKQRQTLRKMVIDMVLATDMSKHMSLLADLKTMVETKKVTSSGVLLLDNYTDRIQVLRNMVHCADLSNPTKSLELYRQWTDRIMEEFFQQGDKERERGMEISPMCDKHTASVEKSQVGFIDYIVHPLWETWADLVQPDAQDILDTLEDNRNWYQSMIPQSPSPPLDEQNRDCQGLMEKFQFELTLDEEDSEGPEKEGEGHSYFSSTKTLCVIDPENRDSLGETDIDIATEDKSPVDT

This test has as its target T1, PDE4B (human recombinant) (Homo sapiens, UniProt Q07343).
T1 construct: made in house; host or cells: Saccharomyces cerevisiae strain GL62 (PDE-deficient)
Description: PDE4B inhibition, radioactive SPA or IMAP fluorescence polarisation (FP) assay. The settings on record: one reading or average of ca. 2-6 readings, accurate only to about ±0.5 log unit, read-out: PDE4B pIC50 (±about 0.5) (converted). The test is classed as biochemical. An excerpt:
Human recombinant PDE4B, in particular the 2B splice variant thereof (HSPDE4B2B), is disclosed in WO 94/20079 and also M. M. McLaughlin et al., “A low Km, rolipram-sensitive, cAMP-specific phosphodiesterase from human brain: cloning and expression of cDNA, biochemical characterisation of recombinant protein, and tissue distribution of mRNA”, J. Biol. Chem., 1993, 268, 6470-6476. Human recombinant PDE4B was expressed in the PDE-deficient yeast Saccharomyces cerevisiae strain GL62. 100,000×g supernatant fractions of yeast cell lysates were used for PDE4B assays and inhibitor studies.
The ability of compounds to inhibit catalytic activity at PDE4B or 4D (human recombinant), PDE3 (from bovine aorta) or PDE5 (human recombinant) or PDE6 (from bovine retina) was determined by Scintillation Proximity Assay (SPA) in 96-well format. Test compounds (preferably as a solution in DMSO, e.g. about 2 microlitre (ul) volume of DMSO solution) were preincubated at ambient temperature (room temperature, e.g. 19-23° C.) in Wallac Isoplates (code 1450-514) with PDE enzyme in 50 mM Tris-HCl buffer pH 7.5, 8.3 mM MgCl2, 1.7 mM EGTA, 0.05% (w/v) bovine serum albumin for 10-30 minutes (usually 30 minutes). The enzyme concentration was adjusted so that no more than 20% hydrolysis of the substrate defined below occurred in control wells without compound, during the incubation. For PDE3, PDE4B and PDE4D assays, [5′,8-^3H]Adenosine 3′,5′-cyclic phosphate (Amersham Pharmacia Biotech, code TRK.559; or Amersham Biosciences UK Ltd, Pollards Wood, Chalfont St Giles, Buckinghamshire HP8 4SP, UK) was added to give 0.05 uCi per well and ˜10 nM final concentration. For the PDE5 and PDE6 assay [8-^3H]Guanosine 3′,5′-cyclic phosphate (Amersham Pharmacia Biotech, code TRK.392) was added to give 0.05 uCi per well and ˜36 nM final concentration. Plates, preferably containing approx. 100 ul volume of assay mixture, were mixed on an orbital shaker for 5 minutes and incubated at ambient temperature for 1 hour. Phosphodiesterase SPA beads (Amersham Pharmacia Biotech, code RPNQ 0150) were added (˜1 mg per well) to terminate the assay. Plates were sealed and shaken and allowed to stand at ambient temperature for 35 minutes to 1 hour (preferably 35 minutes) to allow the beads to settle. Bound radioactive product was measured using a WALLAC TRILUX 1450 Microbeta scintillation counter. For inhibition curves, 10 concentrations ([…]) of each compound were assayed. Curves were analysed using ActivityBase and XLfit (ID Businesss Solutions Limited, 2 Ocean Court, Surrey Research Park, Guildford, Surrey GU2 7QB, United Kindgom) Results were expressed as pIC50 values.
The ability of compounds to inhibit catalytic activity at PDE4B (human recombinant) or PDE4D (human recombinant) was determined by IMAP Fluorescence Polarisation (FP) assay (IAP Explorer kit, available from Molecular Devices Corporation, Sunnydale, Calif., USA; Molecular Devices code: R8062) in 384-well format. The IMAP FP assay is able to measure PDE activity in an homogenous, non-radioactive assay format. The FP assay uses the ability of immobilised trivalent metal cations, coated onto nanoparticles (tiny beads), to bind the phosphate group of Fl-AMP that is produced on the hydrolysis of fluorescein-labelled (Fl) cyclic adenosine mono-phosphate (Fl-cAMP) to the non-cyclic Fl-AMP form. […] Binding of Fl-AMP product to the beads (coated with the immobilised trivalent cations) slows the rotation of the bound Fl-AMP and leads to an increase in the fluorescence polarisation ratio of parallel to perpendicular light. Inhibition of the PDE reduces/inhibits this signal increase. […]
A general note: Polarisation of emitted light reports the rotation of a fluorescent probe.
For `CCn1ncc2c(NC3CCCC3)c(-c3nnc(CS(C)(=O)=O)o3)cnc21` [Example 2, N-Cyclopentyl-1-ethyl-5-{5-[(methylsulfonyl)methyl]-1,3,4-oxadiazol-2-yl}-1H-pyrazolo[3,4-b]pyridin-4-amine], the IC50 was 0.794 to 31.6 nM.

For `CCn1ncc2c(NC3CCCC3)c(-c3nnc(C(C)C)s3)cnc21` [Example 6, N-Cyclopentyl-1-ethyl-5-(5-isopropyl-1,3,4-thiadiazol-2-yl)-1H-pyrazolo[3,4-b]pyridin-4-amine], the IC50 is 7.94 nM.

For `CCn1ncc2c(Nc3ccc(F)cc3)c(-c3nc(C)no3)cnc21` [Example 7, 1-Ethyl-N-(4-fluorophenyl)-5-(3-methyl-1,2,4-oxadiazol-5-yl)-1H-pyrazolo[3,4-b]pyridin-4-amine], the IC50 was 63.1 to 251 nM.

As for `CCn1ncc2c(NC3CCCCC3)c(-c3nnc(C(C)C)o3)cnc21` [Example 10, N-Cyclohexyl-1-ethyl-5-(5-isopropyl-1,3,4-oxadiazol-2-yl)-1H-pyrazolo[3,4-b]pyridin-4-amine], the IC50 is 6.31 nM.

`CCn1ncc2c(NCC(C)C)c(-c3nnc(C)o3)cnc21` [Example 12, 1-Ethyl-N-isobutyl-5-(5-methyl-1,3,4-oxadiazol-2-yl)-1H-pyrazolo[3,4-b]pyridin-4-amine]: the IC50 was 12.6 nM.

Turning to `CCn1ncc2c(NC3CCCCC3)c(-c3nnc(CS(C)(=O)=O)o3)cnc21` [Example 24, N-Cyclohexyl-1-ethyl-5-{5-[(methylsulfonyl)methyl]-1,3,4-oxadiazol-2-yl}-1H-pyrazolo[3,4-b]pyridin-4-amine], the IC50 was 6.31 nM.

For `CCn1ncc2c(N[C@@H](C)C(C)C)c(-c3nnc(CS(C)(=O)=O)o3)cnc21` [Example 26, N-[(1S)-1,2-dimethylpropyl]-1-ethyl-5-{5-[(methylsulfonyl)methyl]-1,3,4-oxadiazol-2-yl}-1H-pyrazolo[3,4-b]pyridin-4-amine], the IC50 is 0.794 to 31.6 nM.

On to `CCn1ncc2c(NC3CCOCC3)c(-c3nnc(C4(C)COC4)o3)cnc21` [Example 34, 1-Ethyl-5-[5-(3-methyloxetan-3-yl)-1,3,4-oxadiazol-2-yl]-N-(tetrahydro-2H-pyran-4-yl)-1H-pyrazolo[3,4-b]pyridin-4-amine], for which the IC50 was 0.794 to 31.6 nM.

As to `CCn1ncc2c(NC3CCOCC3)c(-c3nnc(CN4CCOCC4)o3)cnc21` [Example 39, 1-Ethyl-5-[5-(morpholin-4-ylmethyl)-1,3,4-oxadiazol-2-yl]-N-(tetrahydro-2H-pyran-4-yl)-1H-pyrazolo[3,4-b]pyridin-4-amine], the IC50 was 0.794 to 31.6 nM.

For the compound `CCn1ncc2c(NC3CCOCC3)c(C3=NC(C)CO3)cnc21` (stereo not shown) [Example 42, 1-Ethyl-5-(4-methyl-4,5-dihydro-1,3-oxazol-2-yl)-N-(tetrahydro-2H-pyran-4-yl)-1H-pyrazolo[3,4-b]pyridin-4-amine], the IC50 is 5.01 nM.

For the compound `CCCn1ncc2c(NC3CCOCC3)c(-c3nnc(C)o3)cnc21` [Example 43, 1-n-Propyl-5-(5-methyl-1,3,4-oxadiazol-2-yl)-N-(tetrahydro-2H-pyran-4-yl)-1H-pyrazolo[3,4-b]pyridin-4-amine], the IC50 was 63.1 to 251 nM.

Turning to `CCn1ncc2c(NC3CCOCC3)c(-c3nnc(C4CCCO4)o3)cnc21` (stereo not shown) [Example 44, 1-Ethyl-5-[5-(tetrahydrofuran-2-yl)-1,3,4-oxadiazol-2-yl]-N-(tetrahydro-2H-pyran-4-yl)-1H-pyrazolo[3,4-b]pyridin-4-amine], the IC50 was 0.794 to 31.6 nM.

On to `CCn1ncc2c(NC3CCN(C(C)=O)CC3)c(-c3nc(CN4CCOCC4)no3)cnc21` [Example 48, N-(1-Acetylpiperidin-4-yl)-1-ethyl-5-[3-(morpholin-4-ylmethyl)-1,2,4-oxadiazol-5-yl]-1H-pyrazolo[3,4-b]pyridin-4-amine], for which the IC50 was 63.1 to 251 nM.

For the compound `CCn1ncc2c(NC3CCOCC3)c(C3=N[C@@H](c4ccccc4)CO3)cnc21` [Example 50, 1-Ethyl-5-[(4S)-4-phenyl-4,5-dihydro-1,3-oxazol-2-yl]-N-(tetrahydro-2H-pyran-4-yl)-1H-pyrazolo[3,4-b]pyridin-4-amine], the IC50 is 0.794 to 31.6 nM.

As for `CCn1ncc2c(NC3CCOCC3)c(-c3nc(C(=O)N4CCOCC4)co3)cnc21` [Example 59, 1-Ethyl-5-[4-(4-morpholinylcarbonyl)-1,3-oxazol-2-yl]-N-(tetrahydro-2H-pyran-4-yl)-1H-pyrazolo[3,4-b]pyridin-4-amine], the IC50 was 0.794 to 31.6 nM.

Take `CCn1ncc2c(N(C)C3CCOCC3)c(-c3nnc(C)o3)cnc21` [Example 60, 1-Ethyl-N-methyl-5-(5-methyl-1,3,4-oxadiazol-2-yl)-N-(tetrahydro-2H-pyran-4-yl)-1H-pyrazolo[3,4-b]pyridin-4-amine]: the IC50 was 63.1 to 251 nM.

Turning to `CCn1ncc2c(N[C@H]3CC[C@H](O)CC3)c(-c3nnc(C)o3)cnc21` [Example 61, trans-4-{[1-Ethyl-5-(5-methyl-1,3,4-oxadiazol-2-yl)-1H-pyrazolo[3,4-b]pyridin-4-yl]amino}cyclohexanol], the IC50 is 63.1 to 251 nM.

For the compound `CCn1ncc2c(NC3CCCOC3)c(-c3nnc(C)o3)cnc21` (stereo not shown) [Example 62, 1-Ethyl-5-(5-methyl-1,3,4-oxadiazol-2-yl)-N-(tetrahydro-2H-pyran-3-yl)-1H-pyrazolo[3,4-b]pyridin-4-amine], the IC50 was 0.794 to 31.6 nM.

For the compound `CCn1ncc2c(NC3CCC(=O)CC3)c(-c3nnc(C)o3)cnc21` [Example 63, 4-{[1-Ethyl-5-(5-methyl-1,3,4-oxadiazol-2-yl)-1H-pyrazolo[3,4-b]pyridin-4-yl]amino}cyclohexanone], the IC50 is 0.794 to 31.6 nM.

For `CCCN(c1c(-c2nnc(C)o2)cnc2c1cnn2CC)C1CCOCC1` [Example 64, 1-Ethyl-5-(5-methyl-1,3,4-oxadiazol-2-yl)-N-n-propyl-N-(tetrahydro-2H-pyran-4-yl)-1H-pyrazolo[3,4-b]pyridin-4-amine], the IC50 is 63.1 to 251 nM.

For `CCn1ncc2c(NC3CCOCC3)c(-c3nnc(C4CCOCC4)o3)c(C)nc21` [Example 66, 1-Ethyl-6-methyl-N-(tetrahydro-2H-pyran-4-yl)-5-[5-(tetrahydro-2H-pyran-4-yl)-1,3,4-oxadiazol-2-yl]-1H-pyrazolo[3,4-b]pyridin-4-amine], the IC50 is 0.794 to 31.6 nM.

For the compound `CCn1ncc2c(NC3CCOCC3)c(-c3nnc(Cc4nonc4C)o3)cnc21` [Example 71, 1-Ethyl-5-{5-[(4-methyl-1,2,5-oxadiazol-3-yl)methyl]-1,3,4-oxadiazol-2-yl}-N-(tetrahydro-2H-pyran-4-yl)-1H-pyrazolo[3,4-b]pyridin-4-amine], the IC50 was 0.794 to 31.6 nM.

As for `CCn1ncc2c(NC3CCOCC3)c(-c3nnc(CN(C)C(C)=O)o3)cnc21` [Example 76, N-({5-[1-Ethyl-4-(tetrahydro-2H-pyran-4-ylamino)-1H-pyrazolo[3,4-b]pyridin-5-yl]-1,3,4-oxadiazol-2-yl}methyl)-N-methylacetamide], the IC50 was 0.794 to 31.6 nM.

With `CCn1ncc2c(NC3CCOCC3)c(-c3nnc(CC4CCOCC4)o3)cnc21` [Example 77, 1-Ethyl-N-(tetrahydro-2H-pyran-4-yl)-5-[5-(tetrahydro-2H-pyran-4-ylmethyl)-1,3,4-oxadiazol-2-yl]-1H-pyrazolo[3,4-b]pyridin-4-amine], the IC50 is 0.794 to 31.6 nM.

In the case of `CCn1ncc2c(NC3CCOCC3)c(-c3nc(CC(=O)N4CCCC4)no3)cnc21` [Example 84, 1-Ethyl-5-{3-[2-oxo-2-(1-pyrrolidinyl)ethyl]-1,2,4-oxadiazol-5-yl}-N-(tetrahydro-2H-pyran-4-yl)-1H-pyrazolo[3,4-b]pyridin-4-amine], the IC50 is 0.794 to 31.6 nM.
